For 12 molecules, solubility results are on record in the OPERA property sets (Mansouri et al. 2018).

A word on the solubility: it is the dissolved amount per volume that the medium holds. Read a high solubility as a readily soluble substance.

≈ marks a conversion by molar mass, not a printed value.

The conditions of this data set: 25 °C.
Regarding `CCCC`, the solubility amounted to 1050 µM (≈ 61.2 µg/mL).
Regarding `C=CCC`, the solubility turned out to be 3940 µM (≈ 221 µg/mL).
On to `Cc1ccc(C)c(C)c1`, for which the solubility stood at 474 µM (≈ 57 µg/mL).
`C=CC=C` returned a solubility of 13600 µM (≈ 735 µg/mL).
In turn, `C=C` displayed a solubility of 4670 µM (≈ 131 µg/mL).
Take `CC1CCCC1`: the solubility is 499 µM (≈ 42 µg/mL). Against the preceding molecule, the solubility is about 9.4-fold lower.
Molecule `C#CC` showed a solubility of 90800 µM (≈ 3640 µg/mL).
`C=CC(=C)C` came in with a solubility of 9340 µM (≈ 636 µg/mL).
On to `CCCCCC`, for which the solubility was 110 µM (≈ 9.5 µg/mL).
`C1CCCCC1` yielded a solubility of 654 µM (≈ 55 µg/mL).
Molecule `C1CCCCCCC1` yielded a solubility of 70.4 µM (≈ 7.9 µg/mL). This solubility is about 9.3-fold lower than that of the molecule before.
Regarding `C=CC`, the solubility is 4750 µM (≈ 200 µg/mL).
